{
  "source": "patent US20180133211A1",
  "about": "“METHODS AND MATERIALS FOR PROMOTING BONE FORMATION” (Mayo Foundation for Medical Education and Research, priority 2015, published 2018)",
  "key": {"[1]": {"system": "sham operated or ovariectomized (OVX) C57B16/J female mice", "assay": "In vivo analysis of SFN effects on bone, μCT", "design": "species or system mouse", "details": "sham-operated mice", "method": "Analysis of SFN on mice was performed using a protocol similar to that described elsewhere (Kong et al., Arthritis Rheum., 62:159-170 (2010)). In the experimental setting herein, eight week old sham operated or ovariectomized (OVX) C57B16/J female mice were purchased from Charles River laboratories. Mice were injected with 7.5 mM DL-SFN (200 μL of SFN at a concentration of 63.8 mg/mL/kg dissolved in ethanol and further diluted in PBS) intraperitoneally every other day for five weeks. Control mice received vehicle alone.\nImages from tibias fixed in 4% formaldehyde were acquired in a SkyScan 1174 with a resolution of 6 μm (X-ray voltage 50 kV). Image reconstruction was performed by applying a modified Feldkamp algorithm using the Skyscan Nrecon software. 3D and 2D morphometric parameters were calculated for the trabecular bone (350 consecutive slides, 6 μm thick) starting from 300 μm from the growth plate. Threshold values were applied for segmenting trabecular bone corresponding to bone mineral density values of 0.6/cm^3 calcium hydroxyapatite. 3D parameters were based on analysis of a Marching Cubes type model with a rendered surface. Calculation all of 2D areas and perimeters was based on the Pratt algorithm (Pratt et al., IEEE Trans. Biomed. Eng., 38, 306-309 (1991). Bone structural variables and nomenclature were used according to Bouxsein et al. (J. Bone Miner. Res., 25:1468-1486 (2010))."}, "female C57BL/6 mice [2]": {"system": "female C57BL/6 mice", "assay": "microCT of femur after 5 weeks of daily GSK126 (in vivo Ezh2 inhibition)", "design": "species or system mouse", "details": "for Ct. TV: cortical bone; for Ct. TV / Ct. Ar / Ct. BV / Ct. Mat.M.Dn / Ct. Th / Ec. Ar / Ps.Ar: femoral midshaft; for Ct. TV / Tb.N / Tb.Sp / Tb.Th / Ct. Ar / Ct. BV / Ct. Mat.M.Dn / Ct. Th / Ec. Ar / Ps.Ar: 5 weeks, mean; for Tb.N / Tb.Sp / Tb.Th: distal femur metaphysis", "method": "(§1) Female C57BL/6 mice (Harlan Laboratories) were maintained on a 12-hour light/12-hour dark cycle and were permitted ad libitum access to food and water. For efficacy studies, 6-week old mice received daily intraperitoneal (IP) injections of GSK126 at 15 mg/kg, 50 mg/kg, or vehicle (DMSO) in 20% Captisol adjusted to pH 4-4.5 with IN acetic acid (McCabe et al., Nature, 492:108-112 (2012)) for 5 weeks.\n(§2) The dosage, delivery schedule, and administration route were similar to those described elsewhere (McCabe et al., Nature, 492:108-112 (2012)). Animals were weighed daily. To label mineralizing bone surfaces, mice received subcutaneous injections of calcein (10 mg/kg) 5 days and 24 hours before euthanasia.\nThe quantitative analysis of the femoral metaphysis was performed using a vivaCT 40 scanner (SCANCO Medical AG) with the following parameters: E=55 kVp, 1=145 μA, integration time=300 ms. A 10.5 μm voxel size using a threshold of 220 was applied to all scans at high resolution. Using two-dimensional data from scanned slices, 3D analysis was generated and used to calculate morphometric parameters defining trabecular bone mass and micro-architecture, including Bone Volume/Tissue volume (BV/TV), trabecular number (Tb.N.), trabecular thickness (Tb.Th.), trabecular spacing (Tb.Sp.), and the structure model index (SMI), an indicator of plate-like versus rod-like trabecular architecture."}, "female C57BL/6 mice [3]": {"system": "female C57BL/6 mice", "assay": "Bone histomorphometry of distal femur after 5 weeks of GSK126", "assay_type": "in vivo, mouse", "details": "for N.Ob/B.pm / N.Ob/T.Ar / N.Oc/B.Pm / N.Oc/T.Ar / Ob.S/BS / Oc.S/BS: mean", "method": "as §1, §2\nThe right distal femur was processed for static and dynamic histomorphometry as described elsewhere (McGee-Lawrence et al., Bone, 48:1117-1126 (2011)). Thin (5 μm) sections were stained with Von Kossa/McNeal's tetrachrome to highlight osteoblast surfaces and Goldner's trichrome to examine mineralizing surface and bone surfaces. Osteoclasts were detected using TRAP staining. Unstained sections were used for assessment of dynamic histomorphometry and bone area. Slides were digitized under 40× magnification using Mikroscan D2 digital whole slide scanner and Q-Skan software (Mikroscan Technologies). Beginning 450 μm proximal to the growth plate, mineralizing surface (MS/BS, %/day), mineral apposition rate (MAR, μm/day), bone formation rate (BFR/BV, %/day), osteoblast surface/bone surface (Ob.S/BS, %), osteoblast number/bone perimeter (N.Ob/B.Pm, #/mm), osteoclast surface/bone surface (Oc.S/BS, %), and osteoclast number/bone perimeter (N.Oc/B.Pm, #/mm) were quantified using Image J software as described elsewhere (Schneider et al., Nat. Methods, 9:671-675 (2012) and Egan et al., Histopathology, 61:1168-1173 (2012))."}, "[4]": {"details": "distal femoral metaphysis, 15 mg/kg"}, "[5]": {"details": "distal femoral metaphysis, 50 mg/kg"}},
  "data": [
    {"smiles": "C[S+]([O-])CCCCN=C=S", "note": "(racemic) [DL-SFN]", "values": [
      {"measurement": "femoral metaphyseal cancellous bone volume per tissue volume (BV/TV)", "setting": "[1]; DL-SFN IP every other day for five weeks", "result": "significantly higher"},
      {"measurement": "trabecular number (Tb.N)", "setting": "[1]; DL-SFN for five weeks", "result": "significantly higher"},
      {"measurement": "trabecular separation (Tb.Sp.)", "setting": "[1]; DL-SFN for five weeks", "result": "decreasing"},
      {"measurement": "trabecular thickness (Tb.Th.)", "setting": "[1]; DL-SFN for five weeks", "result": "not affecting"}
    ]},
    {"smiles": "CC[C@H](C)n1cc(C)c2c(C(=O)NCc3c(C)cc(C)[nH]c3=O)cc(-c3ccc(N4CCNCC4)nc3)cc21", "note": "[GSK126, N-[(1,2-dihydro-4,6-dimethyl-2-oxo-3-pyridinyl)methyl]-3-methyl-1-[(1S)-1-methylpropyl]-6-[6-(1-piperazinyl)-3-pyridinyl]-1H-indole-4-carboxamide]", "values": [
      {"measurement": "cortical bone parameters", "setting": "female C57BL/6 mice [2]; adult mice, 50 mg/kg daily for 5 weeks, in words", "result": "increased"},
      {"measurement": "Ct. TV", "setting": "female C57BL/6 mice [2]; 15 mg/kg", "result": 1.184, "unit": "mm^3"},
      {"measurement": "Ct. TV", "setting": "female C57BL/6 mice [2]; 50 mg/kg", "result": 1.243, "unit": "mm^3"},
      {"measurement": "Tb.N", "setting": "female C57BL/6 mice [2]; 15 mg/kg", "result": 3.850, "unit": "mm^−1"},
      {"measurement": "Tb.Sp", "setting": "female C57BL/6 mice [2]; 15 mg/kg", "result": 0.267, "unit": "mm"},
      {"measurement": "Tb.Th", "setting": "female C57BL/6 mice [2]; 15 mg/kg", "result": 0.040, "unit": "mm"},
      {"measurement": "Tb.N", "setting": "female C57BL/6 mice [2]; 50 mg/kg", "result": 4.053, "unit": "mm^−1"},
      {"measurement": "Tb.Sp", "setting": "female C57BL/6 mice [2]; 50 mg/kg", "result": 0.252, "unit": "mm"},
      {"measurement": "Tb.Th", "setting": "female C57BL/6 mice [2]; 50 mg/kg", "result": 0.043, "unit": "mm"},
      {"measurement": "Ct. Ar", "setting": "female C57BL/6 mice [2]; 15 mg/kg", "result": 0.719, "unit": "mm^2"},
      {"measurement": "Ct. BV", "setting": "female C57BL/6 mice [2]; 15 mg/kg", "result": 0.509, "unit": "mm^3"},
      {"measurement": "Ct. Mat.M.Dn", "setting": "female C57BL/6 mice [2]; 15 mg/kg", "result": 1235, "unit": "mgHA/cm^3"},
      {"measurement": "Ct. Th", "setting": "female C57BL/6 mice [2]; 15 mg/kg", "result": 0.171, "unit": "mm"},
      {"measurement": "Ec. Ar", "setting": "female C57BL/6 mice [2]; 15 mg/kg", "result": 0.955, "unit": "mm^2"},
      {"measurement": "Ps.Ar", "setting": "female C57BL/6 mice [2]; 15 mg/kg", "result": 1.675, "unit": "mm^2"},
      {"measurement": "Ct. Ar", "setting": "female C57BL/6 mice [2]; 50 mg/kg", "result": 0.753, "unit": "mm^2"},
      {"measurement": "Ct. BV", "setting": "female C57BL/6 mice [2]; 50 mg/kg", "result": 0.532, "unit": "mm^3"},
      {"measurement": "Ct. Mat.M.Dn", "setting": "female C57BL/6 mice [2]; 50 mg/kg", "result": 1238, "unit": "mgHA/cm^3"},
      {"measurement": "Ct. Th", "setting": "female C57BL/6 mice [2]; 50 mg/kg", "result": 0.175, "unit": "mm"},
      {"measurement": "Ec. Ar", "setting": "female C57BL/6 mice [2]; 50 mg/kg", "result": 1.006, "unit": "mm^2"},
      {"measurement": "Ps.Ar", "setting": "female C57BL/6 mice [2]; 50 mg/kg", "result": 1.758, "unit": "mm^2"},
      {"measurement": "N.Ob/B.pm", "setting": "female C57BL/6 mice [3]; [4]", "result": "0.028 #/mm"},
      {"measurement": "N.Ob/T.Ar", "setting": "female C57BL/6 mice [3]; [4]", "result": 0.109},
      {"measurement": "N.Oc/B.Pm", "setting": "female C57BL/6 mice [3]; [4]", "result": "0.015 #/mm"},
      {"measurement": "N.Oc/T.Ar", "setting": "female C57BL/6 mice [3]; [4]", "result": 0.042},
      {"measurement": "Ob.S/BS", "setting": "female C57BL/6 mice [3]; [4]", "result": 0.354, "unit": "%"},
      {"measurement": "N.Ob/B.pm", "setting": "female C57BL/6 mice [3]; [5]", "result": "0.040 #/mm"},
      {"measurement": "N.Ob/T.Ar", "setting": "female C57BL/6 mice [3]; [5]", "result": 0.081},
      {"measurement": "N.Oc/B.Pm", "setting": "female C57BL/6 mice [3]; [5]", "result": "0.018 #/mm"},
      {"measurement": "N.Oc/T.Ar", "setting": "female C57BL/6 mice [3]; [5]", "result": 0.050},
      {"measurement": "Ob.S/BS", "setting": "female C57BL/6 mice [3]; [5]", "result": 0.551, "unit": "%"},
      {"measurement": "interlabel thickness (Ir.L.Th), mineral apposition rate (MAR) and bone formation rate (BFR)", "setting": "female C57BL/6 mice [3]; dynamic histomorphometry, GSK126 50 mg/kg vs vehicle", "result": "enhanced"},
      {"measurement": "Oc.S/BS", "setting": "female C57BL/6 mice [3]; static histomorphometry, distal femoral metaphysis, 15 mg/kg", "result": 0.314, "unit": "%"},
      {"measurement": "Oc.S/BS", "setting": "female C57BL/6 mice [3]; static histomorphometry, distal femoral metaphysis, 50 mg/kg", "result": 0.240, "unit": "%"},
      {"measurement": "osteoblast surface area per bone surface area (Ob.S/BS)", "setting": "female C57BL/6 mice [3]; static histomorphometry, distal femoral metaphysis, in words (FIG. 19C)", "result": "increase"},
      {"measurement": "number of osteoblasts per bone perimeter (N. Ob./B.Pm)", "setting": "female C57BL/6 mice [3]; static histomorphometry, distal femoral metaphysis, in words (FIG. 19D)", "result": "increase"}
    ]}
  ]
}
